Earlier results, collected in patent publication US9775828B2, “Pharmaceutical composition with increased solubility by using saccharin” (University-Industry Foundation, Yonsei University, priority 2014, dated 2017).

Conditions: when administered to the oral cavity and the nasal cavity

## CN(C)CCc1c[nH]c2ccc(C[C@H]3COC(=O)N3)cc12 [Zolmitriptan, (S)-4-{{3-[2-(dimethylaminoethyl)]-1H-indol-5-1}methyl}-2-oxazolidinone]
  bioavailability: about 40%
